{"source": "patent US20240216293A1", "about": "“USE OF PERILLYL ALCOHOL TO ENHANCE LEVO-DOPA DELIVERY” (NEONC TECHNOLOGIES, INC, priority 2021, published 2024)", "origin": "cited, not measured here", "test_system": "patients with recurrent malignant gliomas", "details": "Phase I/IIa trials, intranasal", "data": [{"compound": "C=C(C)C1CC=C(CO)CC1", "note": "(stereo not shown) [NEO100, perillyl alcohol]", "values": [{"measurement": "toxic side effects", "result": "without toxic side effects"}]}]}
